Results on 28 molecules are retold here after patent US8778966B2, “Quinolinone derivatives as PARP and tank inhibitors” (Janssen Pharmaceutica, NV, priority 2007, dated 2014).

The structures appear in SMILES notation. Like-named read-outs stand apart in the source and are kept apart here.

In assay [1] the test system is HCT116 cells. As to the kind of experiment: Mitotic arrest assay on HCT116 cells (phospho-histone H3 Ser10). The format is cell-based, human. Particulars: Homo sapiens, HCT-116, HCT116 cells; lowest active dose; read-out: Mitotic arrest HCT116 LAD (converted). In short, it runs like this:
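Seeded overnight, then compound-treated 6 h at 37 °C (≤0.1% DMSO); fixed, stained with Alexa Fluor 488 anti-phospho-H3 (Ser10) plus Hoechst 33342, imaged on InCell Analyzer 1000. Blank-subtracted signal divided by SD (sigma), triplicate; value is lowest dose giving sigma >5 (LAD).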

Assay [2] has as its system HCT116 cells. The assay is described as follows: Antiproliferative activity, Alamar Blue assay, HCT116 cells. The format is cell-based, human. Particulars: Homo sapiens, HCT-116, HCT116 cells, read-out: HCT116 antiproliferative activity pIC50 (converted). The method in brief: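 HCT116 cells seeded, adhered 24 h, then exposed to compound for 4 days; Alamar Blue (resazurin) added for 4 h at 37 °C, fluorescence read at 540/590 nm. Viability as % of untreated control, triplicate wells; IC50 by probit analysis, reported as pIC50.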

For `CCc1cc2ccc(C(C)(C#N)Cc3cc(OC)c(OC)c(OC)c3)cc2[nH]c1=O` (centres unmarked) [Compound 289], the minimal effective concentration in the assay with HCT116 cells [1] was 0.1 µM. For the same molecule, the IC50 in the assay on HCT116 cells [2] (Alamar Blue) was 126 nM.

In the case of `Cc1cc2ccc(C(C)(C#N)C3CCc4ccccc43)cc2[nH]c1=O` (centres unmarked) [Compound 392], the minimal effective concentration in the assay on HCT116 cells [1] is 0.3 µM. Besides, the IC50 in the assay on HCT116 cells [2] (Alamar Blue) was 398 nM.

With `CCc1cc2ccc(C(C)(C#N)Cc3cccc(CCS(C)(=O)=O)c3)cc2[nH]c1=O` (centres unmarked) [Compound 178], in the assay with HCT116 cells [1], the minimal effective concentration was 3 µM. In addition, the IC50 in the assay on HCT116 cells [2] (Alamar Blue) is 3980 nM.

For the molecule `CCc1cc2ccc(C(C)(C#N)Cc3cc(C(F)(F)F)ccc3F)cc2[nH]c1=O` (centres unmarked) [Compound 283], the minimal effective concentration with HCT116 cells [1] is 0.3 µM. Also, in the assay on HCT116 cells [2] (Alamar Blue), the IC50 was 794 nM.

On to `Cc1cc2ccc(C(C)(C#N)Cc3cccc(Oc4ccc(F)cc4)c3)cc2[nH]c1=O` (centres unmarked) [Compound 192], for which the minimal effective concentration in the assay on HCT116 cells [1] was 0.3 µM. Besides, in the assay on HCT116 cells [2] (Alamar Blue), the IC50 is 631 nM.

For `CCc1cc2ccc([C@](C)(C#N)CCOc3ccc(C#N)cc3)cc2[nH]c1=O` (single isomer, unassigned) [Compound 275], in the assay on HCT116 cells [1], the minimal effective concentration is 10 µM. In addition, the IC50 in the assay with HCT116 cells [2] (Alamar Blue) was 10000 nM.

As for `CCc1cc2ccc(C(C)(C#N)Cc3nc(C#N)cc(OC)n3)cc2[nH]c1=O` (centres unmarked) [Compound 313], the minimal effective concentration with HCT116 cells [1] is 0.3 µM. Also, the IC50 in the assay on HCT116 cells [2] (Alamar Blue) is 200 nM.

For the molecule `CCc1cc2ccc(C(C#N)(Cc3ccccc3)C3CC3)cc2[nH]c1=O` (centres unmarked) [Compound 29], in the assay on HCT116 cells [1], the minimal effective concentration is 1 µM. In the assay on HCT116 cells [2], the IC50 is 1260 nM.

In the case of `CCc1cc2ccc(C(C)(C#N)Cc3nc(OC)cc(N(C)C)n3)cc2[nH]c1=O` (centres unmarked) [Compound 355], in the assay with HCT116 cells [1], the minimal effective concentration is 0.1 µM. For the same molecule, the IC50 in the assay with HCT116 cells [2] (Alamar Blue) was 200 nM.

As to `CCc1cc2c(OC)cc(C(C)(C#N)Cc3nc(OC)cc(OC)n3)cc2[nH]c1=O` (centres unmarked) [Compound 229], the minimal effective concentration with HCT116 cells [1] was 3 µM. Besides, in the assay on HCT116 cells [2] (Alamar Blue), the IC50 is 2510 nM.

Regarding `CCc1cc2ccc([C@@](C)(C#N)CCOc3ccc(C#N)cc3)cc2[nH]c1=O` (single isomer, unassigned) [Compound 273], the minimal effective concentration in the assay on HCT116 cells [1] is 0.1 µM. In addition, in the assay on HCT116 cells [2] (Alamar Blue), the IC50 was 398 nM.

Consider `CCc1cc2ccc(C(C)(C#N)Cc3cc(N(C)C)nc(C)n3)cc2[nH]c1=O` (centres unmarked) [Compound 322], for which the minimal effective concentration with HCT116 cells [1] is 1 µM. Also, in the assay on HCT116 cells [2] (Alamar Blue), the IC50 is 2000 nM.

In the case of `CCc1cc2ccc(C(C)(C#N)Cc3cccc(C(=O)OC(C)C)c3)cc2[nH]c1=O` (centres unmarked) [Compound 255], in the assay with HCT116 cells [1], the minimal effective concentration was 0.1 µM. Also, the IC50 in the assay with HCT116 cells [2] (Alamar Blue) was 158 nM.

As for `CCc1cc2ccc(C(C)(C#N)Cc3cccc(OCCCN4CCNCC4)c3)cc2[nH]c1=O` (centres unmarked) [Compound 25], the minimal effective concentration with HCT116 cells [1] was 1 µM. For the same molecule, the IC50 in the assay with HCT116 cells [2] is 3160 nM.

With `Cc1cc2ccc(C(C)(C#N)Cc3cccc(C=Cc4ccccc4)c3)cc2[nH]c1=O` (centres unmarked) [Compound 179], the minimal effective concentration in the assay with HCT116 cells [1] was 1 µM. For the same molecule, in the assay with HCT116 cells [2] (Alamar Blue), the IC50 is 2000 nM.

As for `CCc1cc2ccc([C@](C)(C#N)Cc3cccc(C#CCO)c3)cc2[nH]c1=O` (single isomer, unassigned) [Compound 296], in the assay on HCT116 cells [1], the minimal effective concentration is 0.1 µM. Further, the IC50 in the assay on HCT116 cells [2] (Alamar Blue) is 126 nM.

For `CCc1cc2ccc(C(C)(C#N)Cc3nc(N(C)C)cc(N(C)C)n3)cc2[nH]c1=O` (centres unmarked) [Compound 205], in the assay on HCT116 cells [1], the minimal effective concentration was 0.3 µM. Moreover, the IC50 with HCT116 cells [2] (Alamar Blue) is 631 nM.

For the molecule `CCc1cc2ccc(C(C#N)(Cc3ccccc3)c3ccccc3)cc2[nH]c1=O` (centres unmarked) [Compound 27], the minimal effective concentration in the assay on HCT116 cells [1] was 3.16 µM. Also, the IC50 in the assay with HCT116 cells [2] is 3980 nM.

In the case of `CCc1cc2ccc(C(C)(C#N)Cc3cccc(OCCC#N)c3)cc2[nH]c1=O` (centres unmarked) [Compound 195], the minimal effective concentration in the assay with HCT116 cells [1] was 0.1 µM. Besides, the IC50 with HCT116 cells [2] (Alamar Blue) was 251 nM.

With `CCc1cc2ccc(C(C)(C#N)Cc3cc(Cl)nc(N(C)C)c3)cc2[nH]c1=O` (centres unmarked) [Compound 323], the minimal effective concentration with HCT116 cells [1] was 0.3 µM. Further, the IC50 with HCT116 cells [2] (Alamar Blue) was 631 nM.

Regarding `CCc1cc2ccc(C(C)(C#N)Cc3cccc(N(C)CCc4ccccc4)n3)cc2[nH]c1=O.Cl` (centres unmarked) [Compound 220], the minimal effective concentration in the assay with HCT116 cells [1] was 3 µM. Also, the IC50 in the assay on HCT116 cells [2] (Alamar Blue) is 2000 nM.

As for `CCc1cc2ccc(C(C)(C#N)Cc3cccc(NC)c3)cc2[nH]c1=O` (centres unmarked) [Compound 257], in the assay with HCT116 cells [1], the minimal effective concentration was 0.3 µM. For the same molecule, the IC50 in the assay with HCT116 cells [2] (Alamar Blue) was 631 nM.

As for `Cc1cc2ccc(C(C)(C#N)Cc3cccc(Oc4ccccc4)c3)cc2[nH]c1=O` (centres unmarked) [Compound 305], in the assay with HCT116 cells [1], the minimal effective concentration was 0.3 µM. Also, in the assay on HCT116 cells [2] (Alamar Blue), the IC50 is 794 nM.

As for `CCc1cc2ccc(C(C)(C#N)Cc3cc(F)ccc3F)cc2[nH]c1=O` (centres unmarked) [Compound 280], the minimal effective concentration in the assay with HCT116 cells [1] was 0.3 µM. Further, the IC50 in the assay on HCT116 cells [2] (Alamar Blue) is 794 nM.

Take `Cc1cc2ccc(C(C)(C#N)Cc3cccc(/C=C/CCO)c3)cc2[nH]c1=O` (centres unmarked) [Compound 409]: in the assay with HCT116 cells [1], the minimal effective concentration was 0.3 µM. Besides, the IC50 in the assay on HCT116 cells [2] (Alamar Blue) is 398 nM.

For the molecule `CCc1cc2ccc(C(C)(C#N)CN3CCN(c4ccc(C#N)cn4)CC3)cc2[nH]c1=O` (centres unmarked) [Compound 377], the minimal effective concentration in the assay on HCT116 cells [1] was 0.3 µM. Further, in the assay with HCT116 cells [2] (Alamar Blue), the IC50 was 1000 nM.

Take `Cc1nc(-c2ccccc2)sc1CC(C)(C#N)c1ccc2cc(C)c(=O)[nH]c2c1` (centres unmarked) [Compound 235]: the minimal effective concentration in the assay on HCT116 cells [1] is 0.3 µM. The IC50 in the assay on HCT116 cells [2] (Alamar Blue) was 1580 nM.

For `CCc1cc2ccc(C(C)(C#N)Cc3cc(Br)cc(N(C)C)c3)cc2[nH]c1=O` (centres unmarked) [Compound 260], the minimal effective concentration in the assay on HCT116 cells [1] is 0.1 µM. The IC50 in the assay on HCT116 cells [2] (Alamar Blue) was 158 nM.
